Experimental data reported in US12503461B2, “Pesticidally active heterocyclic derivatives with sulfur and sulfoximine containing substituents” (SYNGENTA CROP PROTECTION AG, priority 2019, dated 2025).

What was measured:
Assay type in all cases: in vivo
[1] = system: Spodoptera littoralis (Egyptian Cotton Leaf Worm); test: Example B7: Spodoptera littoralis (Egyptian cotton leaf worm), sprayed cotton leaf discs, L1 larvae; settings: foliar, 72 h, application rate of 200 ppm, 3 days after infestation, in comparison to untreated samples
Protocol: Example B7: Spodoptera littoralis (Egyptian Cotton Leaf Worm
Cotton leaf discs were placed onto agar in 24-well microtiter plates and sprayed with aqueous test solutions prepared from 10′000 ppm DMSO stock solutions. After drying the leaf discs were infested with five L1 larvae. The samples were assessed for mortality, anti-feeding effect, and growth inhibition in comparison to untreated samples 3 days after infestation. Control of Spodoptera littoralis by a test sample is given when at least one of the categories mortality, anti-feedant effect, and growth inhibition is higher than the untreated sample.

[2] = system: Diabrotica balteata (Corn Root Worm); test: Example B1: Diabrotica balteata (corn root worm), sprayed maize sprouts on agar, L2 larvae; settings: 96 h, application rate of 200 ppm, 4 days after infestation, in comparison to untreated samples, read-out: effect in at least one of the two categories (mortality or growth inhibition)
Protocol: Example B1: Diabrotica balteata (Corn Root Worm
Maize sprouts placed onto an agar layer in 24-well microtiter plates were treated with aqueous test solutions prepared from 10′000 ppm DMSO stock solutions by spraying. After drying, the plates were infested with L2 larvae (6 to 10 per well). The samples were assessed for mortality and growth inhibition in comparison to untreated samples 4 days after infestation.

[3] = system: Plutella xylostella (Diamond Back Moth); test: Example B4: Plutella xylostella (diamond back moth), treated artificial diet, eggs; settings: 192 h, application rate of 200 ppm, 8 days after infestation, in comparison to untreated samples, read-out: effect in at least one of the two categories (mortality or growth inhibition)
Protocol: Example B4: Plutella xylostella (Diamond Back Moth
24-well microtiter plates with artificial diet were treated with aqueous test solutions prepared from 10′000 ppm DMSO stock solutions by pipetting. After drying, Plutella eggs were pipetted through a plastic stencil onto a gel blotting paper and the plate was closed with it. The samples were assessed for mortality and growth inhibition in comparison to untreated samples 8 days after infestation.

SMILES | percent control (mortality, anti-feeding effect or growth inhibition) at 200 ppm [1] | percent effect (mortality or growth inhibition) at 200 ppm [2] | percent effect (mortality or growth inhibition) at 200 ppm [3]
CCS(=O)(=O)c1cc(-n2ccc(C(F)(F)F)n2)cnc1-c1nc2cc(S(=N)(=O)C(F)(F)F)ccc2o1 (stereo not shown) [P6, [2-[3-ethylsulfonyl-5-[3-(trifluoromethyl)pyrazol-1-yl]-2-pyridyl]-1,3-benzoxazol-5-yl]-imino-oxo-(trifluoromethyl)-λ^6-sulfane] | ≥ 80% | ≥ 80% | ≥ 80%
CCN=S(=O)(c1ccc2oc(-c3nc(-c4ncccn4)ccc3S(=O)(=O)CC)nc2c1)C(F)(F)F (stereo not shown) [P55, ethylimino-[2-(3-ethylsulfonyl-6-pyrimidin-2-yl-2-pyridyl)-1,3-benzoxazol-5-yl]-oxo-(trifluoromethyl)-λ^6-sulfane] | ≥ 80% | ≥ 80% | ≥ 80%
CCS(=O)(=O)c1ccc(-n2cnc(Cl)n2)nc1-c1nc2cc(S(=N)(=O)C(F)(F)F)ccc2n1C (stereo not shown) [P46, [2-[6-(3-chloro-1,2,4-triazol-1-yl)-3-ethylsulfonyl-2-pyridyl]-1-methyl-benzimidazol-5-yl]-imino-oxo-(trifluoromethyl)-λ^6-sulfane] | ≥ 80% | ≥ 80% | ≥ 80%
CCN=S(=O)(c1ccc2oc(-c3ncc(-n4ccc(C(F)(F)F)n4)cc3S(=O)(=O)CC)nc2c1)C(F)(F)F (stereo not shown) [P5, ethylimino-[2-[3-ethylsulfonyl-5-[3-(trifluoromethyl)pyrazol-1-yl]-2-pyridyl]-1,3-benzoxazol-5-yl]-oxo-(trifluoromethyl)-λ^6-sulfane] | – | ≥ 80% | ≥ 80%
CCS(=O)(=O)c1ccc(-n2cnc(C(F)(F)F)n2)nc1-c1nc2cc(S(=N)(=O)C(F)(F)F)ccc2n1C (stereo not shown) [P48, [2-[3-ethylsulfonyl-6-[3-(trifluoromethyl)-1,2,4-triazol-1-yl]-2-pyridyl]-1-methyl-benzimidazol-5-yl]-imino-oxo-(trifluoromethyl)-λ^6-sulfane] | ≥ 80% | ≥ 80% | ≥ 80%
CCN=S(=O)(c1ccc2c(c1)nc(-c1nc(-n3cnc(Cl)n3)ccc1S(=O)(=O)CC)n2C)C(F)(F)F (stereo not shown) [P47, [2-[6-(3-chloro-1,2,4-triazol-1-yl)-3-ethylsulfonyl-2-pyridyl]-1-methyl-benzimidazol-5-yl]-ethylimino-oxo-(trifluoromethyl)-λ^6-sulfane] | ≥ 80% | ≥ 80% | ≥ 80%
CCS(=O)(=O)c1cc(OCC(F)(F)F)cnc1-c1nc2cc(S(=N)(=O)C(F)(F)F)ccc2o1 (stereo not shown) [P23, [2-[3-ethylsulfonyl-5-(2,2,2-trifluoroethoxy)-2-pyridyl]-1,3-benzoxazol-5-yl]-imino-oxo-(trifluoromethyl)-λ^6-sulfane] | ≥ 80% | ≥ 80% | ≥ 80%
CCN=S(=O)(c1ccc2c(c1)nc(-c1nc(-n3cnc(C(F)(F)F)n3)ccc1S(=O)(=O)CC)n2C)C(F)(F)F (stereo not shown) [P49, ethylimino-[2-[3-ethylsulfonyl-6-[3-(trifluoromethyl)-1,2,4-triazol-1-yl]-2-pyridyl]-1-methyl-benzimidazol-5-yl]-oxo-(trifluoromethyl)-λ^6-sulfane] | ≥ 80% | ≥ 80% | ≥ 80%
CCS(=O)(=O)c1cc(N(C)C(C)=O)cnc1-c1nc2cc(S(=N)(=O)C(F)(F)F)ccc2o1 (stereo not shown) [P4, N-[5-ethylsulfonyl-6-[5-(trifluoromethylsulfonimidoyl)-1,3-benzoxazol-2-yl]-3-pyridyl]-N-methyl-acetamide] | ≥ 80% | ≥ 80% | ≥ 80%
CCN=S(=O)(c1ccc2oc(-c3ncc(-c4nccc(C(F)(F)F)n4)cc3S(=O)(=O)CC)nc2c1)C(F)(F)F (stereo not shown) [P41, ethylimino-[2-[3-ethylsulfonyl-5-[4-(trifluoromethyl)pyrimidin-2-yl]-2-pyridyl]-1,3-benzoxazol-5-yl]-oxo-(trifluoromethyl)-λ^6-sulfane] | ≥ 80% | ≥ 80% | ≥ 80%
CCS(=O)(=O)c1cccnc1-c1nc2cc(S(=O)(=NC#N)C(F)(F)F)ccc2o1 (stereo not shown) [P15, [[2-(3-ethylsulfonyl-2-pyridyl)-1,3-benzoxazol-5-yl]-oxo-(trifluoromethyl)-λ^6-sulfanylidene]cyanamide] | – | ≥ 80% | ≥ 80%
CCN=S(=O)(c1ccc2oc(-c3ncc(-n4ccc(Cl)n4)cc3S(=O)(=O)CC)nc2c1)C(F)(F)F (stereo not shown) [P38, [2-[5-(3-chloropyrazol-1-yl)-3-ethylsulfonyl-2-pyridyl]-1,3-benzoxazol-5-yl]-ethylimino-oxo-(trifluoromethyl)-λ^6-sulfane] | ≥ 80% | ≥ 80% | ≥ 80%
CCS(=O)(=O)c1cc(C2(C#N)CC2)cnc1-c1nc2cc(S(=O)(=NC3CC3)C(F)(F)F)ccc2o1 (stereo not drawn) [P30, 1-[6-[5-[N-cyclopropyl-S-(trifluoromethyl)sulfonimidoyl]-1,3-benzoxazol-2-yl]-5-ethylsulfonyl-3-pyridyl]cyclopropanecarbonitrile] | ≥ 80% | ≥ 80% | ≥ 80%
CCS(=O)(=O)c1ccc(-c2ncccn2)nc1-c1nc2cc(S(=N)(=O)C(F)(F)F)ccc2o1 (stereo not shown) [P54, [2-(3-ethylsulfonyl-6-pyrimidin-2-yl-2-pyridyl)-1,3-benzoxazol-5-yl]-imino-oxo-(trifluoromethyl)-λ^6-sulfane] | ≥ 80% | ≥ 80% | ≥ 80%
CCS(=O)(=O)c1cc(-n2ccc(Cl)n2)cnc1-c1nc2cc(S(=N)(=O)C(F)(F)F)ccc2o1 (stereo not shown) [P37, [2-[5-(3-chloropyrazol-1-yl)-3-ethylsulfonyl-2-pyridyl]-1,3-benzoxazol-5-yl]-imino-oxo-(trifluoromethyl)-λ^6-sulfane] | ≥ 80% | ≥ 80% | ≥ 80%
CCS(=O)(=O)c1ccc(-n2cncn2)nc1-c1nc2cc(S(=N)(=O)C(F)(F)F)ccc2o1 (stereo not shown) [P56, [2-[3-ethylsulfonyl-6-(1,2,4-triazol-1-yl)-2-pyridyl]-1,3-benzoxazol-5-yl]-imino-oxo-(trifluoromethyl)-λ^6-sulfane] | – | ≥ 80% | ≥ 80%
CCN=S(=O)(c1ccc2oc(-c3nc(-n4cncn4)ccc3S(=O)(=O)CC)nc2c1)C(F)(F)F (stereo not shown) [P39, ethylimino-[2-[3-ethylsulfonyl-6-(1,2,4-triazol-1-yl)-2-pyridyl]-1,3-benzoxazol-5-yl]-oxo-(trifluoromethyl)-λ^6-sulfane] | – | ≥ 80% | –
CCS(=O)(=O)c1cccnc1-c1nc2cc(S(=O)(=NCC(F)(F)F)C(F)(F)F)ccc2o1 (stereo not shown) [P14, [2-(3-ethylsulfonyl-2-pyridyl)-1,3-benzoxazol-5-yl]-oxo-(2,2,2-trifluoroethylimino)-(trifluoromethyl)-λ^6-sulfane] | ≥ 80% | ≥ 80% | ≥ 80%
CCN=S(=O)(c1ccc2oc(-c3ncc(-c4ncc(Cl)cn4)cc3S(=O)(=O)CC)nc2c1)C(F)(F)F (stereo not shown) [P43, [2-[5-(5-chloropyrimidin-2-yl)-3-ethylsulfonyl-2-pyridyl]-1,3-benzoxazol-5-yl]-ethylimino-oxo-(trifluoromethyl)-λ^6-sulfane] | ≥ 80% | ≥ 80% | ≥ 80%
CCS(=O)(=O)c1cc(C2(C#N)CC2)cnc1-c1nc2cc(S(=O)(=NCC(F)(F)F)C(F)(F)F)ccc2o1 (stereo not drawn) [P28, 1-[5-ethylsulfonyl-6-[5-[N-(2,2,2-trifluoroethyl)-S-(trifluoromethyl)sulfonimidoyl]-1,3-benzoxazol-2-yl]-3-pyridyl]cyclopropanecarbonitrile] | ≥ 80% | ≥ 80% | ≥ 80%
